Our source for the Papp values is PubChem BioAssay AID1508612.

The nature of this data set: passive permeability, PAMPA, ADME assay (AID 1508612). To be noted: pH 7.4, 30.0 min, 50.0 µM.

As a reminder, the Papp is a coefficient for how fast a substance crosses the barrier. Read a high Papp as ready permeation. Regarding `CC[C@@]1(O)C(=O)OCc2c1cc1n(c2=O)Cc2cc3ccccc3nc2-1`, the Papp worked out at 68.3 ×10⁻⁶ cm/s. In turn, `N[C@@H](Cc1cc(Br)c(O)c(Br)c1)C(=O)O` registered an apparent permeability (Papp) of 3.64 ×10⁻⁶ cm/s. With `c1ccc(-c2cc(Nc3nc(-c4ccncc4)nc4ccccc34)n[nH]2)cc1`, the Papp was 39.4 ×10⁻⁶ cm/s. In turn, `CCC(=O)NC(c1cccs1)c1cc([N+](=O)[O-])c2cccnc2c1O` (configuration not stated) registered a Papp of 36.3 ×10⁻⁶ cm/s. `CCN(CC)C(=O)c1ccc2c(c1)ncn2-c1cccc(C)c1`: the Papp came out at 889 ×10⁻⁶ cm/s. This Papp lies about 24-fold higher than the previous one. Then `CC(C)Oc1cccc(-c2ccnc(N3CCC(C(N)=O)CC3)n2)c1`, with more than 1000 ×10⁻⁶ cm/s; and `COc1oc(-c2cccc3ccccc23)nc1C(=O)O`, with 1.44 ×10⁻⁶ cm/s. Then `Cc1ccc(-c2nc(C)c(C(=O)Nc3ccc4c(c3)C(=O)N3CCC[C@H]3C(=O)N4)s2)cc1`, with 976 ×10⁻⁶ cm/s. Then `COc1ccc2[nH]cc(CCNC(=O)c3cnn(-c4ccc(C)cc4)c3C3CCN(C(=O)OC(C)(C)C)CC3)c2c1`, with 153 ×10⁻⁶ cm/s. `O=C(Nc1nc(-c2ccccc2)cs1)c1ccncc1NS(=O)(=O)c1ccc(F)cc1Cl` registered a Papp of more than 1000 ×10⁻⁶ cm/s. Then `Oc1ccc(C(=S)N2CCN(c3cccc(Cl)c3)CC2)cc1`, with 677 ×10⁻⁶ cm/s.

The compound `Fc1ccc(Nc2nc(Nc3ccncc3)nc3ccccc23)cc1F` returned an apparent permeability (Papp) of 40.4 ×10⁻⁶ cm/s. Take `CCOC(=O)c1[nH]c(C)c(CCC(=O)N2CCN(c3cc(C)ccc3C)CC2)c1C`: the Papp is more than 1000 ×10⁻⁶ cm/s. Take `O=[S+]([O-])(Nc1nccs1)c1ccc(NCc2cccc(Cl)c2)cc1`: the Papp came out at 395 ×10⁻⁶ cm/s. Then `Fc1cc(Nc2nc(-c3ccncc3)nc3ccccc23)ccc1-c1ccncc1`, with 15.4 ×10⁻⁶ cm/s; and `CCCCCCOc1ccc(OC(=O)c2ccncc2)cc1`, with 600 ×10⁻⁶ cm/s; and `Cc1onc(-c2ccccc2)c1C(=O)Nc1nnc(COc2ccc(Cl)cc2)s1`, with 247 ×10⁻⁶ cm/s.

With `O=C(NC1CCN(c2cc(-c3ccc(Cl)cc3)[nH]n2)C1)c1ccccc1` (configuration not stated), the apparent permeability (Papp) was 706 ×10⁻⁶ cm/s. Then `Cc1cccc(C)c1NC(=O)c1nc(SC(C)C)ncc1Cl`, with more than 1000 ×10⁻⁶ cm/s; and `C[C@@H](c1ccc2nccn2c1)n1nnc2ncc(-c3cnn(C)c3)nc21`, with 40.7 ×10⁻⁶ cm/s. Then `Nc1ccc(-c2cccc3c(=O)cc(N4CCOCC4)oc23)cc1`, with 65.7 ×10⁻⁶ cm/s; and `CCOc1ccc(CCNC(=O)c2cc3ccncc3n2Cc2cccc(C)c2)cc1OCC`, with 20.6 ×10⁻⁶ cm/s. Take `Cc1ccc(S(=O)(=O)N2CCN(C(=O)c3cc4c(s3)CCC4)CC2)cc1`: the Papp is more than 1000 ×10⁻⁶ cm/s.

In turn, `Fc1ccc(-c2ccc(Nc3nc(-c4ccncc4)nc4ccccc34)cc2F)c(Cl)c1` gave a Papp of 20.9 ×10⁻⁶ cm/s. For `CCOC(=O)C1=C(CN(CC)Cc2ccccc2)NC(=O)NC1c1ccc(OC(C)C)cc1` (configuration not stated), the Papp is more than 1000 ×10⁻⁶ cm/s. Take `CC(=O)c1cccc(-c2csc(N3CCC(C(N)=O)CC3)n2)c1`: the Papp was 328 ×10⁻⁶ cm/s.

On to `COC(=O)Nc1nc2ccc(SC(C)C)cc2[nH]1`, for which the apparent permeability coefficient (Papp) is 433 ×10⁻⁶ cm/s. On to `NC(=O)C1CCN(c2nc(-c3cccnc3)cs2)CC1`, for which the Papp was determined as 23.2 ×10⁻⁶ cm/s.

The compound `CCOc1ccc(CNC(=O)CCCn2nc(C)c3c(C)n(-c4ccc(C)cc4)nc3c2=O)cc1` gave an apparent permeability (Papp) of 843 ×10⁻⁶ cm/s. Then `CN(C)S(=O)(=O)c1cccc(NC(=O)c2ccc[nH]2)c1`, with 179 ×10⁻⁶ cm/s.

`Clc1ccccc1-c1nccc(-n2ccnc2)n1` registered a Papp of more than 1000 ×10⁻⁶ cm/s. Then `Cn1cc(Cl)c(C2N=C(Nc3nc4ccccc4o3)NC3=C2C(=O)CCC3)n1` (configuration not stated), with 633 ×10⁻⁶ cm/s; and `O=C1c2ccccc2C2=Nc3ccccc3SC(c3ccccc3F)C12` (configuration not stated), with less than 1 ×10⁻⁶ cm/s. Then `COc1ccc(-c2cc(-c3cccc4[nH]ncc34)cn3cncc23)cn1`, with less than 1 ×10⁻⁶ cm/s. Then `CC1=C(C(=O)NC2CCCC2)C(c2nn(C)cc2Cl)N=C(Nc2nc3ccccc3o2)N1` (configuration not stated), with more than 1000 ×10⁻⁶ cm/s; and `CCN1CCc2c(sc(NC(=O)Nc3ccc(Cl)c(Cl)c3)c2C(N)=O)C1`, with 435 ×10⁻⁶ cm/s; and `CC(=O)c1c(C)[nH]c(C(=O)Nc2ccc(OCCCN(C)C)c(S(=O)(=O)Nc3ccc(Br)cc3)c2)c1C`, with 74.7 ×10⁻⁶ cm/s.

In turn, `Cc1cc(NS(=O)(=O)c2ccc(C(=O)NCc3ccc(Cl)c(Cl)c3)cc2)no1` returned a Papp of 46.2 ×10⁻⁶ cm/s. Compared with the last compound, the Papp is about 1.6-fold lower. Regarding `CN(C(=O)CNC(=O)c1ccccc1OCC(=O)Nc1ccc(I)cc1)c1ccccc1`, the Papp is more than 1000 ×10⁻⁶ cm/s.

With `O=S(=O)(Nc1ccccc1)c1ccc(NCc2cccc(Cl)c2O)cc1`, the Papp was found to be 487 ×10⁻⁶ cm/s. `Cc1cccc(C(=O)Nc2ccc(N3CCC(N4CCCCC4)CC3)c(C(=O)O)c2)c1` gave a Papp of 5.2 ×10⁻⁶ cm/s. This Papp is about 94-fold lower than that of the compound before. The compound `CN(C)CCN1C(=O)c2cccc3cc(N)cc(c23)C1=O` yielded a Papp of 339 ×10⁻⁶ cm/s. `CCNc1oc(-c2cccc3ccccc23)nc1C#N` came in with an apparent permeability coefficient (Papp) of 728 ×10⁻⁶ cm/s. In turn, `CC(=O)c1c(C)[nH]c(C(=O)Nc2cccc([S+](=O)([O-])Nc3ccccn3)c2)c1C` came in with a Papp of 11.6 ×10⁻⁶ cm/s. Then `Cc1nc2c(-c3ccccc3)cnn2c(N)c1-c1ccccc1`, with 207 ×10⁻⁶ cm/s; and `Cc1cc(C)nc(NC(=S)N2CCN(c3cc(C(F)(F)F)nc4ccccc34)CC2)c1`, with more than 1000 ×10⁻⁶ cm/s; and `Cc1ccc(S(=O)(=O)c2cnc(SC(C)C(=O)Nc3ccccc3)[nH]c2=O)cc1` (configuration not stated), with 1.2 ×10⁻⁶ cm/s.
